Experimental data reported in patent publication US6737383B1, “Herbicidal oxadiazolidines” (priority 1999, dated 2004).

Legend:
[1] = system: duck salad; experiment: Test B flood test duck salad; assay type: in vivo, Heteranthera limosa
Procedure, shortened: (§1)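 Plants were grown to the 2-leaf stage before treatment with test chemical, then held in a greenhouse for twelve to sixteen days. Injury was visually rated against untreated controls on a 0–10 scale, where 0 is no effect and 10 is complete control.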

[2] = system: winter barley; experiment: Test E winter barley; assay type: in vivo, Hordeum vulgare; conditions: Preemergence
[3] = system: wheat; experiment: Test B pre/postemergence wheat; assay type: in vivo, Triticum aestivum; conditions: for Wheat plant response rating (0 to 10 scale): 0 is no effect
Procedure, shortened: (§2)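 Herbicidal effect was estimated by eye on a ten-point control scale after plants spent twelve to sixteen days in a greenhouse following soil or foliar treatment. Foliar sprays targeted plants at one to four leaves; all doses were formulated in a non-phytotoxic solvent with surfactant.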

[4] = system: winter wheat; experiment: Test E winter wheat; assay type: in vivo, Triticum aestivum; conditions: Postemergence
Procedure, shortened: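 Plants were grown under normal greenhouse practice; for postemergence, in sandy loam soil mixed 60:40 with potting mix, treated at the 1- to 4-leaf stage. The compound was in a non-phytotoxic solvent carrying a surfactant. After roughly 21 to 28 days plants were scored visually against untreated plants.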

[5] = system: wild oat; experiment: Test E wild oat; assay type: in vivo, Avena fatua; conditions: Preemergence; for Plant response rating, Wild oat: 0 to 100 scale where 0 is no effect and 100 is complete control
[6] = system: blackgrass; experiment: Test E blackgrass; assay type: in vivo, Alopecurus myosuroides; conditions: Preemergence
[7] = system: green foxtail; experiment: Test E green foxtail; assay type: in vivo, Setaria viridis; conditions: Preemergence
[8] = system: winter wheat; experiment: Test E winter wheat; assay type: in vivo, Triticum aestivum; conditions: Preemergence
[9] = system: Italian ryegrass; experiment: Test E Italian ryegrass; assay type: in vivo, Lolium multiflorum; conditions: Preemergence
[10] = system: rice; experiment: Test B flood test rice; assay type: in vivo, Oryza sativa
Procedure, shortened: as §1

[11] = system: bedstraw; experiment: Test B pre/postemergence bedstraw; assay type: in vivo, Galium aparine; conditions: for Bedstraw plant response rating (0 to 10 scale): 0 is no effect
Procedure, shortened: as §2

[12] = Postemergence, Rate 62 g/ha, scale 0 to 10, 0 is no effect, 10 is complete control
[13] = Rate 125 g/ha, Postemergence section (flood test species), scale 0 to 10, 0 no effect, 10 complete control
[14] = Rate 250 g/ha, headed Pre-emergence (flood test species), scale 0 to 10 (0 no effect, 10 complete control)
[15] = Rate 500 g/ha, headed Pre-emergence (flood test species), scale 0 to 10 (0 no effect, 10 complete control)
[16] = Rate 500 g/ha, listed under Postemergence (flood test species), scale 0 to 10, 0 no effect, 10 complete control
[17] = Rate 1000 g/ha, Pre-emergence (as headed), scale 0 to 10
[18] = Rate 2000 g/ha, Pre-emergence (as headed), scale 0 to 10
[19] = flood test, listed under Postemergence, Rate 250 g/ha, scale 0 to 10, 0 no effect, 10 complete control
[20] = Rate 500 g/ha, 0 to 100 scale where 0 is no effect and 100 is complete control
[21] = Rate 1000 g/ha, 0 to 100 scale where 0 is no effect and 100 is complete control
[22] = Postemergence, Rate 250 g/ha, scale 0 to 10, 0 no effect, 10 complete control
[23] = Preemergence, Rate 62 g/ha, scale 0 to 10 (0 no effect, 10 complete control)
[24] = Preemergence, Rate 125 g/ha, scale 0 to 10 (0 no effect, 10 complete control)
[25] = Preemergence, Rate 250 g/ha, scale of 0 to 10 where 0 is no effect and 10 is complete control
[26] = Preemergence, Rate 500 g/ha, scale 0 (no effect) to 10 (complete control)
[27] = Rate 125 g/ha, Postemergence, scale 0 to 10, 0 no effect, 10 complete control
[28] = Rate 500 g/ha, Postemergence, scale 0 to 10, 0 no effect, 10 complete control
[29] = Rate 250 g/ha, 0 to 100 scale (0 no effect, 100 complete control)
[30] = Rate 1000 g/ha, 0 to 100 scale, 0 is no effect and 100 is complete control
[31] = Rate 500 g/ha, 0 to 100 scale, 0 no effect, 100 complete control
[32] = Postemergence (flood test species), Rate 125 g/ha, scale of 0 to 10 where 0 is no effect and 10 is complete control
[33] = Rate 62 g/ha, Postemergence section, flood test species, scale of 0 to 10 where 0 is no effect and 10 is complete control
[34] = Rate 250 g/ha, Postemergence (flood test), scale 0 to 10, 0 is no effect, 10 is complete control
[35] = Postemergence, Rate 125 g/ha, scale of 0 to 10 where 0 is no effect and 10 is complete control
[36] = Preemergence, Rate 125 g/ha, 10 is complete control
[37] = Preemergence, Rate 250 g/ha, scale 0 to 10, 0 is no effect, 10 is complete control
[38] = Preemergence, Rate 500 g/ha, scale 0 to 10 (0 no effect, 10 complete control)
[39] = Rate 62 g/ha, Postemergence, scale of 0 to 10 where 0 is no effect and 10 is complete control
[40] = Rate 250 g/ha, Postemergence, scale 0 to 10, 0 is no effect, 10 is complete control
[41] = Postemergence, Rate 1000 g/ha, scale 0 to 10 (0 no effect, 10 complete control)
[42] = Rate 500 g/ha, listed under Postemergence (flood test species), scale 0 to 10
[43] = Rate 2000 g/ha, Postemergence, scale 0 to 10

CC(C)N(C(=O)n1oc(=O)n(Cc2cccs2)c1=O)c1ccc(F)cc1F [Compound 86]
8: Rice plant response rating [10, 18] | Bedstraw plant response rating [11, 28]
80: Plant response rating, Barley (winter) [2, 20]
40: Plant response rating, Green foxtail ([7]; Rate 250 g/ha, 0 to 100 scale) | Plant response rating, Wheat (winter) [8, 20]
2: Bedstraw plant response rating [11, 12]
50: Plant response rating, I. Ryegrass [9, 20]
30: Plant response rating, I. Ryegrass ([9]; Rate 250 g/ha, 0 to 100 scale)
6: Bedstraw plant response rating [11, 22]
100: Plant response rating, Green foxtail [7, 21]
55: Plant response rating, Wheat (winter) [4, 29] | Plant response rating, Blackgrass [6, 20] | Plant response rating, Green foxtail [7, 20]
4: Bedstraw plant response rating [11, 27]
60: Plant response rating, Wheat (winter) [4, 30] | Plant response rating, Wild oat ([5]; Rate 500 g/ha) | Plant response rating, Blackgrass ([6]; Rate 250 g/ha, 0 to 100 scale) | Plant response rating, Wheat (winter) ([8]; Rate 250 g/ha, 0 to 100 scale) | Plant response rating, I. Ryegrass [9, 21]
0: Ducksalad plant response rating [1, 12] | Ducksalad plant response rating [1, 13] | Ducksalad plant response rating [1, 14] | Plant response rating, Ducksalad [1, 15] | Ducksalad plant response rating [1, 16] | Ducksalad plant response rating [1, 17] | Ducksalad plant response rating [1, 18] | Ducksalad plant response rating [1, 19] | Wheat plant response rating [3, 12] | Wheat plant response rating [3, 22] | Wheat plant response rating [3, 23] | Plant response rating, Wheat [3, 24] | Plant response rating, Wheat [3, 25] | Wheat plant response rating [3, 26] | Wheat plant response rating [3, 27] | Wheat plant response rating [3, 28] | Rice plant response rating [10, 12] | Rice plant response rating [10, 13] | Rice plant response rating [10, 14] | Plant response rating, Rice [10, 15] | Rice plant response rating [10, 16] | Rice plant response rating [10, 17] | Rice plant response rating [10, 19] | Bedstraw plant response rating [11, 23] | Plant response rating, Bedstraw [11, 24] | Plant response rating, Bedstraw [11, 25] | Bedstraw plant response rating [11, 26]
70: Plant response rating, Barley (winter) ([2]; Rate 250 g/ha, 0 to 100 scale) | Plant response rating, Barley (winter) [2, 21] | Plant response rating, Wheat (winter) [4, 31] | Plant response rating, Wild oat ([5]; Rate 1000 g/ha)
65: Plant response rating, Blackgrass [6, 21] | Plant response rating, Wheat (winter) [8, 21]

CC(C)N(C(=O)n1oc(=O)n(-c2cnn(C)c2)c1=O)c1ccccc1 [Compound 123]
65: Plant response rating, Wheat (winter) [4, 30] | Plant response rating, Blackgrass [6, 21]
4: Wheat plant response rating [3, 28]
7: Wheat plant response rating [3, 38]
0: Ducksalad plant response rating [1, 32] | Ducksalad plant response rating [1, 33] | Plant response rating, Ducksalad [1, 34] | Ducksalad plant response rating [1, 14] | Plant response rating, Ducksalad [1, 15] | Ducksalad plant response rating [1, 16] | Ducksalad plant response rating [1, 17] | Ducksalad plant response rating [1, 18] | Wheat plant response rating [3, 23] | Wheat plant response rating (0 to 10 scale) [3, 36] | Wheat plant response rating [3, 39] | Rice plant response rating [10, 32] | Rice plant response rating [10, 33] | Plant response rating, Rice [10, 34] | Rice plant response rating [10, 14] | Plant response rating, Rice [10, 15] | Rice plant response rating [10, 16] | Rice plant response rating [10, 17] | Rice plant response rating [10, 18] | Bedstraw plant response rating [11, 23] | Bedstraw plant response rating (0 to 10 scale) [11, 36] | Bedstraw plant response rating [11, 37] | Bedstraw plant response rating [11, 38]
20: Plant response rating, Green foxtail ([7]; Rate 250 g/ha, 0 to 100 scale) | Plant response rating, Wheat (winter) [8, 21]
1: Wheat plant response rating [3, 35] | Plant response rating, Wheat [3, 40]
30: Plant response rating, Barley (winter) ([2]; Rate 250 g/ha, 0 to 100 scale) | Plant response rating, Blackgrass ([6]; Rate 250 g/ha, 0 to 100 scale)
10: Plant response rating, Wheat (winter) ([8]; Rate 250 g/ha, 0 to 100 scale)
5: Wheat plant response rating [3, 37]
55: Plant response rating, Wheat (winter) [4, 29] | Plant response rating, Wild oat ([5]; Rate 1000 g/ha)
40: Plant response rating, Green foxtail [7, 21] | Plant response rating, I. Ryegrass ([9]; Rate 250 g/ha, 0 to 100 scale)
50: Plant response rating, Barley (winter) [2, 21] | Plant response rating, I. Ryegrass [9, 21]

Cc1nsc(C)c1-n1c(=O)on(C(=O)N(c2ccc(F)cc2)C(C)C)c1=O [Compound 157]
20: Wheat (winter) plant response rating ([4]; Rate 250 g/ha, 0 to 100 scale where 0 is no effect and 100 is complete control) | Blackgrass plant response rating (0 to 100 scale) ([6]; Rate 250 g/ha) | Wheat (winter) plant response rating (0 to 100 scale) ([8]; Rate 250 g/ha) | I. Ryegrass plant response rating (0 to 100 scale) ([9]; Rate 250 g/ha)
30: Plant response rating, Barley (winter) [2, 21] | Plant response rating, Wheat (winter) [4, 31] | Plant response rating, Wild oat ([5]; Rate 500 g/ha) | Green foxtail plant response rating (0 to 100 scale) ([7]; Rate 250 g/ha) | Plant response rating, Wheat (winter) [8, 20] | Plant response rating, I. Ryegrass [9, 20]
0: Ducksalad plant response rating [1, 41] | Plant response rating, Ducksalad [1, 34] | Ducksalad plant response rating [1, 42] | Ducksalad plant response rating [1, 43] | Barley (winter) plant response rating (0 to 100 scale) ([2]; Rate 250 g/ha) | Wheat plant response rating [3, 23] | Wheat plant response rating (0 to 10 scale) [3, 36] | Wheat plant response rating [3, 37] | Wheat plant response rating [3, 38] | Plant response rating, Wheat [3, 40] | Wheat plant response rating ([3]; Rate 500 g/ha, Postemergence, scale 0 to 10) | Rice plant response rating [10, 41] | Plant response rating, Rice [10, 34] | Rice plant response rating [10, 42] | Rice plant response rating [10, 43] | Bedstraw plant response rating [11, 35] | Bedstraw plant response rating [11, 23] | Bedstraw plant response rating (0 to 10 scale) [11, 36] | Bedstraw plant response rating [11, 37] | Bedstraw plant response rating [11, 38] | Bedstraw plant response rating [11, 39] | Plant response rating, Bedstraw [11, 40]
50: Wild oat plant response rating (0 to 100 scale) ([5]; Rate 250 g/ha) | Plant response rating, Wild oat ([5]; Rate 1000 g/ha) | Plant response rating, Blackgrass [6, 21] | Plant response rating, Green foxtail [7, 21] | Plant response rating, I. Ryegrass [9, 21]
40: Plant response rating, Wheat (winter) [4, 30] | Plant response rating, Blackgrass [6, 20] | Plant response rating, Green foxtail [7, 20] | Plant response rating, Wheat (winter) [8, 21]
10: Plant response rating, Barley (winter) [2, 20]
